Laboratory results reported in US10604535B2, “Compounds, compositions and methods” (Denali Therapeutics Inc., priority 2016, dated 2020).

What was measured:
[1] = system: FADD-deficient Jurkat cells; assay: Cellular necroptosis assay (human TNFα-induced necrosis, CellTiter-Glo); type: cell-based; settings: Homo sapiens, Jurkat, 48 h, TNFα 10 ng/mL, read-out: Cell IC50
[2] = molecular target: GST-hRIPK1 (8-327) (Homo sapiens (Human), UniProt Q13546); assay: Fluorescent Polarization Binding (FP Binding) assay
Sequence of GST-hRIPK1 (8-327) (Q13546 8-327): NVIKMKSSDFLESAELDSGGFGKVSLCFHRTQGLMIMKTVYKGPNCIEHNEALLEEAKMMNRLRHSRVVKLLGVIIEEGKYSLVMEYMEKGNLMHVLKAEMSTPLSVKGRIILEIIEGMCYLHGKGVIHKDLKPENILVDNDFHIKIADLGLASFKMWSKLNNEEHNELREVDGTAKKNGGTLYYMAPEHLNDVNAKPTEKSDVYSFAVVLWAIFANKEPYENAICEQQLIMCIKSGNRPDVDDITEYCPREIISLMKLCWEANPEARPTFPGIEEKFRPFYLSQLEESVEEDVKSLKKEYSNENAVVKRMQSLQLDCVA

SMILES | IC50 [1] [nM] | IC50 [2] [nM]
CN1C(=O)[C@@H](NC(=O)c2nnc(C3(c4ccccc4)CC3)s2)COc2ccccc21 [Example 58, (S)—N-(5-methyl-4-oxo-2,3,4,5-tetrahydrobenzo[b][1,4]oxazepin-3-yl)-5-(1-phenylcyclopropyl)-1,3,4-thiadiazole-2-carboxamide] | 0.1 to 1000 | 0.1 to 1000
C[C@H]1Oc2cccnc2NC(=O)[C@H]1NC(=O)c1nnc(Cc2ccccc2)[nH]1 [Example 96, 5-benzyl-N-((2R,3S)-2-methyl-4-oxo-2,3,4,5-tetrahydropyrido[3,2-b][1,4]oxazepin-3-yl)-4H-1,2,4-triazole-3-carboxamide] | 0.1 to 1000 | 0.1 to 1000
CN1C(=O)[C@@H](NC(=O)c2ncc(C3(c4ccccc4)CC3)[nH]2)COc2cccnc21 [Example 99, (S)—N-(5-methyl-4-oxo-2,3,4,5-tetrahydropyrido[3,2-b][1,4]oxazepin-3-yl)-5-(1-phenylcyclopropyl)-1H-imidazole-2-carboxamide] | 0.1 to 1000 | 1000 to 10000
CN1C(=O)[C@@H](NC(=O)c2cc(Oc3ccccc3F)ccn2)[C@H]2C[C@H]2c2cccnc21 [Example 100A, 4-(2-fluorophenoxy)-N-((1aS,2S,8bR)-4-methyl-3-oxo-1,1a,2,3,4,8b-hexahydrocyclopropa[d]pyrido[2,3-b]azepin-2-yl)picolinamide] | 0.1 to 1000 | 0.1 to 1000
CN1C(=O)[C@@H](NC(=O)c2nnc(Cc3ccccc3)[nH]2)CCc2c1cnn2C [Example 101B, (S)-5-benzyl-N-(1,4-dimethyl-5-oxo-1,4,5,6,7,8-hexahydropyrazolo[4,3-b]azepin-6-yl)-4H-1,2,4-triazole-3-carboxamide] | 0.1 to 1000 | 0.1 to 1000
O=C(N[C@H]1CC2(CC2)c2cc(F)cc(F)c2NC1=O)c1nnc(Cc2ccccc2)[nH]1 [Example 103B, (S)-5-benzyl-N-(7,9-difluoro-2-oxo-1,2,3,4-tetrahydrospiro[benzo[b]azepine-5,1′-cyclopropan]-3-yl)-4H-1,2,4-triazole-3-carboxamide] | 0.1 to 1000 | 0.1 to 1000
CN1C(=O)[C@@H](NC(=O)c2nnc(Cc3ccccc3)[nH]2)CCc2nn(C)cc21 [Example 105A, (S)-5-benzyl-N-(2,4-dimethyl-5-oxo-2,4,5,6,7,8-hexahydropyrazolo[4,3-b]azepin-6-yl)-4H-1,2,4-triazole-3-carboxamide] | 0.1 to 1000 | 0.1 to 1000
CN1C(=O)[C@@H](NC(=O)c2nn(Cc3ccccc3)cc2F)CCc2nn(C)cc21 [Example 109A, (S)-1-benzyl-N-(2,4-dimethyl-5-oxo-2,4,5,6,7,8-hexahydropyrazolo[4,3-b]azepin-6-yl)-4-fluoro-1H-pyrazole-3-carboxamide] | 0.1 to 1000 | 0.1 to 1000
O=C(N[C@@H]1C(=O)Nc2ncccc2[C@@H]2C[C@H]12)c1nnc(Cc2ccccc2)[nH]1 [Example 110B, 5-benzyl-N-((1aS,2S,8bR)-3-oxo-1,1a,2,3,4,8b-hexahydrocyclopropa[d]pyrido[2,3-b]azepin-2-yl)-4H-1H-1,2,4-triazole-3-carboxamide] | 0.1 to 1000 | 0.1 to 1000
CN1C(=O)[C@@H](NC(=O)c2nn(Cc3ccccc3)cc2F)CCc2cccnc21 [Example 111B, (S)-1-benzyl-4-fluoro-N-(9-methyl-8-oxo-6,7,8,9-tetrahydro-5H-pyrido[2,3-b]azepin-7-yl)-1H-pyrazole-3-carboxamide] | 0.1 to 1000 | 0.1 to 1000
C[C@H]1Oc2cccnc2N(C)C(=O)[C@H]1NC(=O)c1cc(Cc2ccccc2)on1 [Example 112, 5-benzyl-N-((2R,3S)-2,5-dimethyl-4-oxo-2,3,4,5-tetrahydropyrido[3,2-b][1,4]oxazepin-3-yl)isoxazole-3-carboxamide] | 0.1 to 1000 | 0.1 to 1000
CN1C(=O)[C@@H](NC(=O)c2nn(Cc3ccccc3)cc2F)CCc2c1cnn2C [Example 114A, (S)-1-benzyl-N-(1,4-dimethyl-5-oxo-1,4,5,6,7,8-hexahydropyrazolo[4,3-b]azepin-6-yl)-4-fluoro-1H-pyrazole-3-carboxamide] | 0.1 to 1000 | 0.1 to 1000
CN1C(=O)[C@@H](NC(=O)c2nn(Cc3ccc(F)cc3)cc2F)COc2cccnc21 [Example 115, (S)-4-fluoro-1-(4-fluorobenzyl)-N-(5-methyl-4-oxo-2,3,4,5-tetrahydropyrido[3,2-b][1,4]oxazepin-3-yl)-1H-pyrazole-3-carboxamide] | 0.1 to 1000 | 0.1 to 1000
O=C(N[C@H]1CCc2ccccc2-n2ccnc21)c1cc(Oc2ccccc2F)cnn1 [Example 116, (S)—N-(5,6-dihydro-4H-benzo[f]imidazo[1,2-a]azepin-4-yl)-5-(2-fluorophenoxy)pyridazine-3-carboxamide] | 0.1 to 1000 | 0.1 to 1000
C[C@H]1Oc2cccnc2N(C)C(=O)[C@H]1NC(=O)c1cc(Oc2ccccc2F)ccn1 [Example 117, N-((2R,3S)-2,5-dimethyl-4-oxo-2,3,4,5-tetrahydropyrido[3,2-b][1,4]oxazepin-3-yl)-4-(2-fluorophenoxy)picolinamide] | 0.1 to 1000 | 0.1 to 1000
CN1C(=O)[C@@H](NC(=O)c2nnc(Cc3ccccc3)s2)[C@H]2C[C@H]2c2cccnc21 [Example 120A, 5-benzyl-N-((1aS,2S,8bR)-4-methyl-3-oxo-1,1a,2,3,4,8b-hexahydrocyclopropa[d]pyrido[2,3-b]azepin-2-yl)-1,3,4-thiadiazole-2-carboxamide] | 0.1 to 1000 | 0.1 to 1000
C[C@H]1Oc2cccnc2N(C)C(=O)[C@H]1NC(=O)c1cc(Cc2ccccc2)no1 [Example 122, 3-benzyl-N-((2R,3S)-2,5-dimethyl-4-oxo-2,3,4,5-tetrahydropyrido[3,2-b]oxazepin-3-yl)isoxazole-5-carboxamide] | 0.1 to 1000 | 0.1 to 1000
O=C(N[C@H]1COc2cccnc2NC1=O)c1ncc(Cc2ccccc2)s1 [Example 123, (S)-5-benzyl-N-(4-oxo-2,3,4,5-tetrahydropyrido[3,2-b][1,4]oxazepin-3-yl)thiazole-2-carboxamide] | 0.1 to 1000 | 0.1 to 1000
C[C@H]1Oc2cccnc2N(C)C(=O)[C@H]1NC(=O)c1ncc(Cc2ccccc2)s1 [Example 124, 5-benzyl-N-((2R,3S)-2,5-dimethyl-4-oxo-2,3,4,5-tetrahydropyrido[3,2-b][1,4]oxazepin-3-yl)thiazole-2-carboxamide] | 0.1 to 1000 | 0.1 to 1000
CN1C(=O)[C@@H](NC(=O)c2nnc(Cc3ccccc3)[nH]2)CC2(CC2)c2cccnc21 [Example 125B, (S)-5-benzyl-N-(9′-methyl-8′-oxo-6′,7′,8′,9′-tetrahydrospiro[cyclopropane-1,5′-pyrido[2,3-b]azepin]-7′-yl)-4H-1,2,4-triazole-3-carboxamide] | 0.1 to 1000 | 0.1 to 1000
CN1C(=O)[C@@H](NC(=O)c2nc(F)c(Cc3ccccc3)s2)COc2cccnc21 [Example 126, (S)-5-benzyl-4-fluoro-N-(5-methyl-4-oxo-2,3,4,5-tetrahydropyrido[3,2-b][1,4]oxazepin-3-yl)thiazole-2-carboxamide] | 0.1 to 1000 | 0.1 to 1000
C[C@H]1Oc2cccnc2N(C)C(=O)[C@H]1NC(=O)c1nn(Cc2cccc(C#N)c2)cc1F [Example 128, 1-(3-Cyanobenzyl)-N-((2R,3S)-2,5-dimethyl-4-oxo-2,3,4,5-tetrahydropyrido[3,2-b][1,4]oxazepin-3-yl)-4-fluoro-1H-pyrazole-3-carboxamide] | 0.1 to 1000 | 0.1 to 1000
CN1C(=O)[C@@H](NC(=O)c2nn(Cc3cc(F)cc(C#N)c3)cc2F)COc2cccnc21 [Example 130, (S)-1-(3-Cyano-5-fluorobenzyl)-4-fluoro-N-(5-methyl-4-oxo-2,3,4,5-tetrahydropyrido[3,2-b][1,4]oxazepin-3-yl)-1H-pyrazole-3-carboxamide] | 0.1 to 1000 | 0.1 to 1000
C[C@H]1Oc2cccnc2N(C)C(=O)[C@H]1NC(=O)c1nn(Cc2ccccc2)cc1Cl [Example 132, 1-Benzyl-4-chloro-N-((2R,3S)-2,5-dimethyl-4-oxo-2,3,4,5-tetrahydropyrido[3,2-b][1,4]oxazepin-3-yl)-1H-pyrazole-3-carboxamide] | 0.1 to 1000 | 0.1 to 1000
CN1C(=O)[C@@H](NC(=O)c2nn(Cc3ccccc3F)cc2F)COc2cccnc21 [Example 133, (S)-4-Fluoro-1-(2-fluorobenzyl)-N-(5-methyl-4-oxo-2,3,4,5-tetrahydropyrido[3,2-b][1,4]oxazepin-3-yl)-1H-pyrazole-3-carboxamide] | 0.1 to 1000 | 0.1 to 1000
CN1C(=O)[C@@H](NC(=O)c2nn(Cc3cccc(F)c3)cc2F)COc2cccnc21 [Example 135, (S)-4-Fluoro-1-(3-fluorobenzyl)-N-(5-methyl-4-oxo-2,3,4,5-tetrahydropyrido[3,2-b][1,4]oxazepin-3-yl)-1H-pyrazole-3-carboxamide] | 0.1 to 1000 | 0.1 to 1000
C[C@H]1Oc2cccnc2N(C)C(=O)[C@H]1NC(=O)c1ncn(Cc2ccccc2)n1 [Example 136, 1-Benzyl-N-((2R,3S)-2,5-dimethyl-4-oxo-2,3,4,5-tetrahydropyrido[3,2-b][1,4]oxazepin-3-yl)-1H-1,2,4-triazole-3-carboxamide] | 0.1 to 1000 | 0.1 to 1000
CN1C(=O)[C@@H](NC(=O)c2nn(Cc3cncc(F)c3)cc2F)COc2cccnc21 [Example 137, (S)-4-Fluoro-1-((5-fluoropyridin-3-yl)methyl)-N-(5-methyl-4-oxo-2,3,4,5-tetrahydropyrido[3,2-b][1,4]oxazepin-3-yl)-1H-pyrazole-3-carboxamide] | 0.1 to 1000 | 0.1 to 1000
C[C@H]1Oc2cccnc2N(C)C(=O)[C@H]1NC(=O)c1nnc(C2(c3ccccc3)CC2)o1 [Example 138, N-((2R,3S)-2,5-dimethyl-4-oxo-2,3,4,5-tetrahydropyrido[3,2-b][1,4]oxazepin-3-yl)-5-(1-phenylcyclopropyl)-1,3,4-oxadiazole-2-carboxamide] | 0.1 to 1000 | 0.1 to 1000
